Experimental data from patent US20040197865A1, “Gene expression systems and recombinant cell lines” (3M Innovative Properties Company, priority 2002, published 2004).

Target: T1, human TLR6 (Homo sapiens, UniProt Q9Y2C9)
T1 construct: expressed in transfected cells; host or cells: Namalwa cells (ATCC CRL-1432), co-transfected with pIFN-α1-luc and pCI-TLR6, G418-selected
Test: Luciferase induction off the IFN-α1 promoter in pIFN-α1-luc/pCI-TLR6 co-transfected Namalwa cells
Type: cell-based
Conditions: IRM compound 10 μM, 18 hours, fold increase compared to DMSO negative control, representative experiment
Description: The vector pIFN-α1-luc was constructed by inserting BglII sites at both ends of the human IFN-α1 promoter (SEQ ID NO:21). The BglII sites were inserted into the IFN-α1 promoter and the sequence was amplified using the primer pair of SEQ ID NO:22 and SEQ ID NO:23. The amplified IFN-α1 promoter was cloned into the pGL3-Enhancing vector (Promega Corp., Madison, Wis.) at its BglII site.
The vector pCI-TLR6 was constructed by inserting SEQ ID NO:11 (GenBank Accession No. NM 006068), which includes the human TLR6 coding sequence, into the pCI-neo mammalian expression vector (Promega Corp.) at the vector's NheI and MluI restriction sites.
Burkitt's Lymphoma lymphoblastoid Namalwa cells (ATCC Accession No. CRL-1432) were grown by incubation in culture medium overnight. Cells were harvested by centrifugation in a tabletop centrifuge (1200 RPM for 5 minutes), and then resuspended in phosphate buffered sucrose to a concentration of 1.3×10^7 cells per milliliter.
For each transfection, a 750 μL aliquot of the cell suspension was placed in an electroporation cuvette with 4 mm gaps. 10 μg of the pIFN-α1-luc vector and 10 μg of the pCI-TLR6 vector were added to the electroporation cuvette. The cell and vector mixtures were incubated at room temperature for 5 minutes. The cells were electroporated using a BioRad Gene Pulser (BioRad Laboratories, Hercules, Calif.) set to at 500 μF capacitance and […], then incubated at room temperature for 5 minutes.
The electroporated cells were suspended in 10 mLs of culture medium and incubated overnight. Dead cells and debris were removed after 24 hours using a MACS Dead Cell Removal kit (Miltenyi Biotec, Auburn, Calif.). Cells were resuspended in 10 mLs of culture medium and incubated for an additional 24 hours.
Transfected cells were selected by adding G418 (Promega Corp., Madison, Wis.) to a final concentration of 1 mg/mL and incubating the cells for seven days.
The selected transfected cells were counted and resuspended to a concentration of 1×10^6 cell per mL in culture medium. 100 μl aliquots of cells were placed in the wells of a white-walled, white-bottomed 96-well plate (Corning, Inc. Corning, N.Y.). 1.0 μL of an IRM compound from Table 1 (prepared at 1 mM in 100% DMSO) was added to some cell aliquots so that the final concentration of IRM compound was 10 μM. As a positive control, some cell aliquots were incubated with Sendai virus instead of IRM compound. As a negative control, some cell aliquots were incubated with DMSO without IRM compound. In all cases, the cells were incubated for 18 hours.
The plates were equilibrated to room temperature before 1 volume of reconstituted LucLight Plus (Packard Instruments, Meriden, Conn.) was added to each aliquot of cells. Each well of the plate was read on an LJL Analyst (LJL Biosystems, Inc., Sunnyvale, Calif.) set with a 5 minute dark adapt. The data are expressed as the fold increase in luciferase induction off of the IFN-α1 promoter in cell aliquots incubated with the indicated stimulant compared to the negative control in which the cell aliquots were incubated with only DMSO.

T1 sequence (Q9Y2C9 32-796): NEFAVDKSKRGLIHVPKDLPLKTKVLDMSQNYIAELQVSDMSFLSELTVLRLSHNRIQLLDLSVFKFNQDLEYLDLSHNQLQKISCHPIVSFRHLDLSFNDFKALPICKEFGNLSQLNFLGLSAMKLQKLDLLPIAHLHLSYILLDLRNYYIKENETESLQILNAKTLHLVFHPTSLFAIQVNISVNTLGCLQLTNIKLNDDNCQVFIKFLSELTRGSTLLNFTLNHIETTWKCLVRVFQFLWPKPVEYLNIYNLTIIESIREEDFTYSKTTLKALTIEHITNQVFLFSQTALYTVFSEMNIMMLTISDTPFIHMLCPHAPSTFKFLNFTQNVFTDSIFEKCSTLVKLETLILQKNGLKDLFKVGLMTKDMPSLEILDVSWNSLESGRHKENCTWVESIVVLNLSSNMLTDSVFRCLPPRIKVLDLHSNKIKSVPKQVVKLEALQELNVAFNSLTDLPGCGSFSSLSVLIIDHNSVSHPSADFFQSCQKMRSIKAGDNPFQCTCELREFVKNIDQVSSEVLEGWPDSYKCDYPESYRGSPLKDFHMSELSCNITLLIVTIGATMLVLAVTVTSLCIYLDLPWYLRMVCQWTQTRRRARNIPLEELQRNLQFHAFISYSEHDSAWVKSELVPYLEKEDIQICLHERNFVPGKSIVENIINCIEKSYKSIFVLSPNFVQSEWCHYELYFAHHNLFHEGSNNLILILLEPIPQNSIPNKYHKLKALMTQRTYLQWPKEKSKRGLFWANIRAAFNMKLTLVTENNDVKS
T1 sequence (O60603 19-784 partner limits assumed): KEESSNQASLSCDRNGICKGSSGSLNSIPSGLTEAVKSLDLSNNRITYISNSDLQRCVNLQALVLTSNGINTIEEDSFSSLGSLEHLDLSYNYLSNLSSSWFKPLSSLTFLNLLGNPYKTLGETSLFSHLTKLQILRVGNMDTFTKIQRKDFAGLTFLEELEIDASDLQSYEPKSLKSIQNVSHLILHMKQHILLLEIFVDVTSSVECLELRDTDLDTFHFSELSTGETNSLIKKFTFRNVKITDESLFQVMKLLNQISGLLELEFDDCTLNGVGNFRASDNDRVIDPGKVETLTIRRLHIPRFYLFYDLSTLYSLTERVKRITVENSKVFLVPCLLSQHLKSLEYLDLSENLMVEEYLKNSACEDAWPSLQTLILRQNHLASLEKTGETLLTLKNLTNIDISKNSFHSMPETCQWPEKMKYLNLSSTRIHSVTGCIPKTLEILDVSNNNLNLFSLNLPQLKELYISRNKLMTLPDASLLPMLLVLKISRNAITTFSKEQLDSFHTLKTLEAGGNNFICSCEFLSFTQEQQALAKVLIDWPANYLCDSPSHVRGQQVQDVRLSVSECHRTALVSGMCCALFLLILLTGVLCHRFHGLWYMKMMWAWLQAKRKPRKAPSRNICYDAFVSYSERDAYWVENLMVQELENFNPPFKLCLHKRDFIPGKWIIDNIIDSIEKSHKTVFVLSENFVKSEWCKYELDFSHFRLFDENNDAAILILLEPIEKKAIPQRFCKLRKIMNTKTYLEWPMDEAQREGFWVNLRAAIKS

Row | Structure (SMILES) | Fold Increase in Luciferase Induction
1 | Cc1nc2c(N)nc3ccccc3c2n1CC(C)(C)O [IRM2, 4-amino-α,α,2-trimethyl-1H-imidazo[4,5-c]quinoline-1-ethanol] | 2.7
2 | Nc1nc2ccccc2c2c1ncn2CCOCCCc1cccnc1 [IRM4, 1-{2-[3-(3-pyridyl)propoxy]ethyl}-1H-imidazo[4,5-c]quinolin-4-amine] | 4.0
3 | CCc1nc2c(N)nc3ccccc3c2n1CCCCCS(C)(=O)=O [IRM8, 2-ethyl-1-[5-(methylsulfonyl)pentyl]-1H-imidazo[4,5-c]quinolin-4-amine] | 2.3
4 | COCCc1nc2c(N)nc3ccccc3c2n1CCCCNC(=O)c1ccc(-n2cccc2)nc1 [IRM7, N^3-{4-[4-amino-2-(2-methoxyethyl)-1H-imidazo[4,5-c]quinolin-1-yl]butyl}-6-(1H-1-pyrrolyl)nicotinamide] | 3.2

Now from value to compound:

Row | Fold Increase in Luciferase Induction | Structure (SMILES)
5 | 2.6 | CCCCc1nc2c(N)nc3ccccc3c2n1CCCCNS(C)(=O)=O [IRM3, N-[4-(4-amino-2-butyl-1H-imidazo[4,5-c]quinolin-1-yl)butyl]methanesulfonamide]
6 | 3.6 | CCOCc1nc2c(N)nc3c(c2n1CC(C)(C)O)CCCC3 [IRM1, 4-amino-2-ethoxymethyl-α,α-dimethyl-6,7,8,9-tetrahydro-1H-imidazo[4,5-c]quinoline-1-ethanol]
7 | 2.9 | CCCCc1nc2c(N)nc3c(c2n1CC(C)C)NCCC3 [IRM6, 2-butyl-6,7,8,9-tetrahydro-1-(2-methylpropyl)-1H-imidazo[4,5-c][1,5]naphthyridin-4-amine]
8 | 3.2 | CCCCc1nc2c(N)nc3cccnc3c2n1CC(C)C [IRM5, 2-butyl-1-(2-methylpropyl)-1H-imidazo[4,5-c][1,5]naphthyridin-4-amine]
